Patent EP2325185A1, “Plk inhibitor” (GPC Biotech AG, priority 2009, dated 2011)

Columns and labels:
Format in all cases: cell-based
[1] = target: Plk1 (Homo sapiens, UniProt P53350); assay: Cellular Plk1 kinase activity: nucleophosmin (B23) Ser4 phosphorylation in HCT116 cells (MSD electrochemiluminescence); conditions: nocodazole-treated, 4 hours compound exposure, read-out: Biochemical IC50 Nucleophosmin assay
Protocol: Cellular Plk1 kinase activity was measured by quantification of nucleophosmin (B23) Ser4 phosphorylation in a cancer cell line. Nucleophosmin (B23) Ser4 is phosphorylated by Plkl, and this phosphorylation can be specifically detected by cross-reactivity of a phospho-Mekl/2 antibody that is able to recognizes a mitotic-specific phosphorylated form of nucleophosmin (B23) in a nocodazole dependent way (Zhang, H., Shi, X., Paddon, H., Hampong, M., Dai, W., and Pelech, S. (2004) B23/Nuleophosmin Serin 4 Phosphorylation Mediates Mitotic Functions of Polo-like Kinase 1. J. Biol. Chem., 279(34), 35726-35734).
Briefly, HCT116 cells (ATCC, Order No. CCL-247) were plated in 96 well dishes 24 hours prior to nocodazole treatment at 25 000 cells per well. Cells were then treated with 100 ng/ml nocodazole (Sigma-Aldrich, # M1404). […]
The cell lysates were thawed at room temperature and 40 µl were incubated on 96-well MULTI-ARRAY High Bind plates (L11XB; MSD) for 1.5 - 2 hours at room temperature. […] Then, 150 µl of 1x Read Buffer T (R92TC; MSD) were carefully added to each well and the plates were quantitatively detected for each well with a SECTOR™ Imager 6000 (MSD).
Inhibitory activity of the compound (IC) was calculated as % inhibition of nucleophosmin (B23) Ser4 phosphorylation compared to cells […].

[2] = system: IMR-90; assay: SRB cell proliferation assay, IMR-90; conditions: Homo sapiens, IMR-90; 72 hours, SRB; read-out: CELLULAR IC50 IMR-90
Protocol: (§1) Cells were exposed to the test compound racemate at various concentrations appropriate to determine an IC50 for 72 hours. Cell proliferation was measured using the SRB assay according to Shekan et al (J Natl Cancer Inst (1990) 82, 1107-112) in order to estimate the IC50 values shown in Table 3. Briefly, cells were plated in 96 well dishes 24 hours prior to compound addition at the densities specified in Table 5.1. The assay was terminated with the addition of cold TCA to a final concentration of 10% after growth medium has been removed and the plates were incubated over night at 4°C. The plates were then washed 5 times with water and 100µl of a Sulforhodamine B solution ([…]) was added to each well. The plates were then incubated for 10 minutes at room temperature before removal of unbound dye by washing with 1% acetic acid. The bound dye was solubilised with 10 mM Trizma base and the absorbance read at OD520.
(§2) Inhibitory activity of the compound (IC) was calculated as % inhibition of cell proliferation compared to cells treated with the solvent (DMSO).
(§3) Table 8.1: 18-Cell Line Panel

[3] = system: HT-29; assay: SRB cell proliferation assay, HT-29; conditions: Homo sapiens, HT-29; 72 hours, SRB; read-out: CELLULAR IC50 HT-29
Protocol: as §1, §2, §3

[4] = system: HCT 116; assay: SRB cell proliferation assay, HCT 116; conditions: Homo sapiens, HCT-116; 72 hours, SRB; read-out: CELLULAR IC50 HCT 116
Protocol: as §1, §2, §3

Sequence of Plk1 (P53350 whole entry, species assumed): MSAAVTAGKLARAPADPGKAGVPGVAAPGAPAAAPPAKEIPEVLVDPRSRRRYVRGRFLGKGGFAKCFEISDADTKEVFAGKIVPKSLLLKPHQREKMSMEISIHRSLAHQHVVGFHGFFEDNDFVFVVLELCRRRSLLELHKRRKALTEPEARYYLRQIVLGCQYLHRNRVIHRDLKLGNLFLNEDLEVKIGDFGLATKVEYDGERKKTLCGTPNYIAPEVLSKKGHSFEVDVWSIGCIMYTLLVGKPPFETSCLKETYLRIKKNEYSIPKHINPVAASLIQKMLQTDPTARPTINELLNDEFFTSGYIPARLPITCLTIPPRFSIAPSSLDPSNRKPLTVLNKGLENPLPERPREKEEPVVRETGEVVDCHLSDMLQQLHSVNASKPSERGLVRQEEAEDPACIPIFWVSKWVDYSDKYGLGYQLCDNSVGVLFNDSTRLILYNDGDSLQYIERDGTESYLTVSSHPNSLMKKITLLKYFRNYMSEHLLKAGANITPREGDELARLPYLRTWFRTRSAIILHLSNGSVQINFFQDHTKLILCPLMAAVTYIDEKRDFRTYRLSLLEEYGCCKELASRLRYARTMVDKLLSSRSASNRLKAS

IC50 [1]: < 0.1 µM
IC50 [3]: < 1 µM
IC50 [4]: < 1 µM
Compound: CCC1C(=O)N(C)c2cnc(Nc3ccc(C(=O)N[C@H]4CC[C@H](N5CCN(CC6CC6)CC5)CC4)cc3OC)nc2N1N(C)C (mixture of isomers) [racemic mixture containing compound 1 and (S)-enantiomer, N-[trans-4-(4-Cyclopropylmethyl-piperazin-1-yl)-cyclohexyl]-4-(8-dimethylamino-7-ethyl-5-methyl-6-oxo-5,6,7,8-tetrahydro-pteridin-2-ylamino)-3-methoxy-benzamide]
IC50 [2]: > 1 µM
